pIC50: −log10 of the molar value.
Molecular target: T1, human NaV1.8 (Homo sapiens, UniProt Q9Y5Y9)
T1 construct: The following NaV1.8 recombinant cell line was used for recordings: HEK-NaV1.8 (NM 006514.1); expressed in transfected cells; host or cells: HEK (recombinant cell line HEK-NaV1.8)
Experiment: Electrophysiology: automated whole-cell voltage-clamp (patch clamp, Qube384) recordings of sodium currents in HEK-NaV1.8 cells
Type: cell-based
Settings: potency data either taken from inactivated or resting state, read-out: Potency category (human NaV1.8 IC50)
How it was run: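 Automated whole-cell patch clamp at room temperature on HEK cells expressing human NaV1.8, with 0.3% DMSO vehicle controls. State-dependent protocol from −120 mV tested resting (P1) and half-inactivated (P2, 4 s at V1/2) channels, plus 40-pulse trains at 10 and 20 Hz. Values after ~12 min compound exposure were normalised to baseline and corrected for vehicle run-down; IC50 from a 4-parameter logistic fit, taken from inactivated or resting state.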

T1 sequence (Q9Y5Y9 whole entry): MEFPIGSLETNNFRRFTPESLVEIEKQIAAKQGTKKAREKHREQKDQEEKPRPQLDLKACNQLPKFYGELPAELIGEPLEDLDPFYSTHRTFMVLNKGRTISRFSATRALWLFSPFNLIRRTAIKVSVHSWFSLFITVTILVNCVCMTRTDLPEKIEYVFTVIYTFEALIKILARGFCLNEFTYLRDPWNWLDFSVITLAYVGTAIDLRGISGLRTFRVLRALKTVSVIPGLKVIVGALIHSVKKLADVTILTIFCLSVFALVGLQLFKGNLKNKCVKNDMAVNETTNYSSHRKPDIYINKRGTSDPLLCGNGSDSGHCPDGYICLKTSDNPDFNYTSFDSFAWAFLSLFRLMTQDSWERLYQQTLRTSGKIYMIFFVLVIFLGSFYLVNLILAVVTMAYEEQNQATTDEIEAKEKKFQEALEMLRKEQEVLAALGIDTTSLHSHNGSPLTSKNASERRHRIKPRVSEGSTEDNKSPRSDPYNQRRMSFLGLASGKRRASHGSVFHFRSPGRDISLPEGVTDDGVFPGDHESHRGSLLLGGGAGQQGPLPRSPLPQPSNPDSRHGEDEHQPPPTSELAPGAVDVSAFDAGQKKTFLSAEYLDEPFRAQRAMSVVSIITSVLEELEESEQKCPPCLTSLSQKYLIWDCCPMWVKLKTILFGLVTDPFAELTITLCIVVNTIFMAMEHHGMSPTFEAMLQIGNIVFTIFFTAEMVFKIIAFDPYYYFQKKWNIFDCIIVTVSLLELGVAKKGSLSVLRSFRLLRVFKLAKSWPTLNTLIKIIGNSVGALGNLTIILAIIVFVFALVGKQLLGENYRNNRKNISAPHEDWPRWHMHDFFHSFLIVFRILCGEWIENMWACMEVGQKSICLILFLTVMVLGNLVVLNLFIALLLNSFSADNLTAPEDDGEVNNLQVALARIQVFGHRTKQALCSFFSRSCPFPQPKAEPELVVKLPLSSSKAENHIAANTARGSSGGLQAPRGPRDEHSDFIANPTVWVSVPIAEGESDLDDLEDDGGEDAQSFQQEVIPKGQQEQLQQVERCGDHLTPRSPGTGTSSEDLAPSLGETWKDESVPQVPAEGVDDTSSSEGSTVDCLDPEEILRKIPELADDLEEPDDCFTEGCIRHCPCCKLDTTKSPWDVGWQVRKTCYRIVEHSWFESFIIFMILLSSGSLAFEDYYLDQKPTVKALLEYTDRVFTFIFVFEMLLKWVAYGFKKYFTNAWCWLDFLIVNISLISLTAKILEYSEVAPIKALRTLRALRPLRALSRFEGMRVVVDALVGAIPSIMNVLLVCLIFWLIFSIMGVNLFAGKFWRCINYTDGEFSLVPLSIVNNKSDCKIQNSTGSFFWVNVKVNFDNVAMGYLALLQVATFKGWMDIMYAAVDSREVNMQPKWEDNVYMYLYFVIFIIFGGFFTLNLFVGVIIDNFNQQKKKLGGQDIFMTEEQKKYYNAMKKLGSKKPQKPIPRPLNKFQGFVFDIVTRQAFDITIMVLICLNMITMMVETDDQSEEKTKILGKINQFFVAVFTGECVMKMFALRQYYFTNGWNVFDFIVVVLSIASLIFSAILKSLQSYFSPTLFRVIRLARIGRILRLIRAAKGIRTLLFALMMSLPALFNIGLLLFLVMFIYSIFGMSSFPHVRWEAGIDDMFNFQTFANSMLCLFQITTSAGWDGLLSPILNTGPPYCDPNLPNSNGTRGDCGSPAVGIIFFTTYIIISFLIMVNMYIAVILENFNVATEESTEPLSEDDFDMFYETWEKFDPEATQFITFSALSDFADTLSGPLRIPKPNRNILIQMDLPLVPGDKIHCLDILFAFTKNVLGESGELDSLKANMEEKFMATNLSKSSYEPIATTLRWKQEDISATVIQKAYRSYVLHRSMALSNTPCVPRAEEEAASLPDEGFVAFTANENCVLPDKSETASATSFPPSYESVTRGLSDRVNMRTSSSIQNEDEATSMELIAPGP
T1 sequence (Q9NY72 23-215 partner): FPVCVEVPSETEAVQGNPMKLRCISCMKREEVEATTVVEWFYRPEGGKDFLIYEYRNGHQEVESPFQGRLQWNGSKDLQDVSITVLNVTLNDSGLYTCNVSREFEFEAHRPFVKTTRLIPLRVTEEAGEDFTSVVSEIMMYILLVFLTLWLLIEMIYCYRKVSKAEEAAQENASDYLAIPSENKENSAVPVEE

pIC50	SMILES
≥ 7.00	Cc1c(C(C)(F)F)nn(CC2(C)CC(F)(F)C2)c1C(=O)Nc1ccnc(C(N)=O)c1 [SC-208, 4-(1-((3,3-difluoro-1-methylcyclobutyl)methyl)-3-(1,1-difluoroethyl)-4-methyl-1H-pyrazole-5-carboxamido)picolinamide]
≥ 7.00	Cc1c(C(C)(F)F)nn(CC2(C)CC(F)(F)C2)c1C(=O)Nc1ccnc(S(N)(=O)=O)c1 [SC-209, 1-((3,3-difluoro-1-methylcyclobutyl)methyl)-3-(1,1-difluoroethyl)-4-methyl-N-(2-sulfamoylpyridin-4-yl)-1H-pyrazole-5-carboxamide]
≥ 7.00	Cc1c(C(C)(F)F)nn(CC2CC(F)(F)C2)c1C(=O)Nc1ccnc(S(N)(=O)=O)c1 [SC-215, 1-((3,3-difluorocyclobutyl)methyl)-3-(1,1-difluoroethyl)-4-methyl-N-(2-sulfamoylpyridin-4-yl)-lH-pyrazole-5-carboxamide]
6.00 to 7.00	Cc1c(C(C)(F)F)nn([C@@H](C)C2CC(F)(F)C2)c1C(=O)Nc1ccnc(S(C)(=O)=O)c1 [SC-222a]
5.00 to 6.00	Cc1c(C(C)(F)F)nn([C@H](C)C2CC(F)(F)C2)c1C(=O)Nc1ccnc(S(C)(=O)=O)c1 [SC-222b]
6.00 to 7.00	Cc1c(C(C)(F)F)nn(CC2C[C@@H](F)[C@@H](F)C2)c1C(=O)Nc1ccnc(S(C)(=O)=O)c1 (stereo partly drawn) [SC-224, 1-((3,4-difluorocyclopentyl)methyl)-3-(1,1-difluoroethyl)-4-methyl-N-(2-(methylsulfonyl)pyridin-4-yl)-1H-pyrazole-5-carboxamide]
≥ 7.00	COc1nn(CC2CCC(F)(F)C2)c(C(=O)Nc2ccnc(S(C)(=O)=O)c2)c1C(F)(F)F (stereo not drawn) [SC-225, 1-((3,3-difluorocyclopentyl)methyl)-3-methoxy-N-(2-(methylsulfonyl)pyridin-4-yl)-4-(trifluoromethyl)-1H-pyrazole-5-carboxamide]
5.00 to 6.00	CS(=O)(=O)c1cccc(NC(=O)c2ccnn2CC2CCCCC2)c1 [SC-226, 1-(cyclohexylmethyl)-N-(3-(methyIsulfonyl)phenyl)-1H-pyrazole-5-carboxamide]
6.00 to 7.00	CS(=O)(=O)c1cccc(NC(=O)c2c(C(F)(F)F)cnn2CC2(F)CCCCC2)c1 [SC-233, 1-((1-fluorocyclohexyl)methyl)-N-(3-(methylsulfonyl)phenyl)-4-(trifluoromethyl)-1H-pyrazole-5-carboxamide]
≥ 7.00	NS(=O)(=O)c1cccc(NC(=O)c2c(C(F)(F)F)cnn2CC2CCCC2(F)F)c1 (stereo not drawn) [SC-235, 1-((2,2-difluorocyclopentyl)methyl)-N-(3-sulfamoylphenyl)-4-(trifluoromethyl)-1H-pyrazole-5-carboxamide]
≥ 7.00	Cc1nn(CC2CCC(F)(F)CC2)c(C(=O)Nc2cccc(S(N)(=O)=O)c2)c1Cl [SC-236, 4-chloro-1-((4,4-difluorocyclohexyl)methyl)-3-methyl-N-(3-sulfamoylphenyl)-1H-pyrazole-5-carboxamide]
5.00 to 6.00	Cc1nn(CC2CCO2)c(C(=O)Nc2cccc(S(C)(=O)=O)c2)c1C(F)(F)F (stereo not drawn) [SC-237, 3-methyl-N-(3-(methyIsulfonyl)phenyl)-1-(oxetan-2-yimethyl)-4-(trifluoromethyl)-1H-pyrazole-5-carboxamide]
≥ 7.00	Cc1nn(CC2CCCCC2)c(C(=O)Nc2ccc(F)c(S(N)(=O)=O)c2)c1C(F)(F)F [SC-238, 1-(cyclohexyimethyl)-N-(4-fluoro-3-sulfamoylphenyl)-3-methyl-4-(trifluoromethyl)-1H-pyrazole-5-carboxamide]

More lines, now with the values behind:

SMILES	pIC50
Cc1c(C(C)(F)F)nn(CC2(C)CC(F)(F)C2)c1C(=O)Nc1ccnc(S(C)(=O)=O)c1 [SC-210, 1-((3,3-difluoro-1-methyleyclobutyl)methyl)-3-(1,1-difluoroethyl)-4-methyl-N-(2-(methylsulfonyl)pyridin-4-yl)-1H-pyrazole-5-carboxamide]	≥ 7.00
Cc1c(C(C)(F)F)nn(CC2CCC(F)(F)C2)c1C(=O)Nc1ccnc(S(N)(=O)=O)c1 (stereo not drawn) [SC-211, 1-((3,3-difluorocyclopentyl)methyl)-3-(1,1-difluoroethyl)-4-methyl-N-(2-sulfamoylpyridin-4-yl)-1H-pyrazole-5-carboxamide]	≥ 7.00
Cc1c(C(C)(F)F)nn(CC2(C)CCC(F)(F)C2)c1C(=O)Nc1ccnc(S(C)(=O)=O)c1 (stereo not drawn) [SC-213, 1-((3,3-difluoro-1-methyleyclopentyl)methyl)-3-(1,l-difluoroethyl)-4-methyl-N-(2-(methylsulfonyl)pyridin-4-yl)-1H-pyrazole-5-carboxamide]	≥ 7.00
NC(=O)c1cc(NC(=O)c2c(C(F)F)c(C3CC3)nn2CC2CCC(F)(F)C2)ccn1 (stereo not drawn) [SC-216, 4-(3-cyclopropyl-1-((3,3-difluorocyclopentyl)methyl)-4-(difluoromethyl)-1H-pyrazole-5-carboxamido)picolinamide]	≥ 7.00
CCc1nn(CC2CCC(F)(F)C2)c(C(=O)Nc2ccnc(C(N)=O)c2)c1C(F)(F)F (stereo not drawn) [SC-218, 4-(1-((3,3-difluorocyclopentyl)methyl)-3-ethyl-4-(trifluoromethyl)-1H-pyrazole-5-carboxamido)picolinamide]	≥ 7.00
Cc1c(C(C)(F)F)nn(CC2(C(F)(F)F)CC(F)(F)C2)c1C(=O)Nc1ccnc(S(C)(=O)=O)c1 [SC-220, 1-((3,3-difluoro-1-(trifluoromethyl)cyclobutyl)methyl)-3-(1,l-difluoroethyl)-4-methyl-N-(2-(methylsulfonyl)pyridin-4-yl)-1H-pyrazole-5-carboxamide]	≥ 7.00
CS(=O)(=O)c1cccc(NC(=O)c2c(C(F)F)cnn2CC2CCCCC2)c1 [SC-229, 1-(cyclohexylmethyl)-4-(difluoromethyl)-N-(3-(methylsulfonyl)phenyl)-1H-pyrazole-5-carboxamide]	≥ 7.00
NS(=O)(=O)c1cccc(NC(=O)c2c(C(F)(F)F)c(C3CC3)nn2CC2CCC(F)(F)CC2)c1 [SC-230, 3-cyclopropyl-1-((4,4-difluorocyclohexyl)methyl)-N-(3-sulfamoylphenyl)-4-(trifluoromethyl)-lH-pyrazole-5-carboxamide]	≥ 7.00
Cc1nn(CC2CCC(F)(F)CC2)c(C(=O)Nc2ccnc(C#N)c2)c1C [SC-231, N-(2-cyanopyridin-4-yl)-1-((4,4-difluorocyclohexyl)methyl)-3,4-dimethyl-1H-pyrazole-5-carboxamide]	5.00 to 6.00
CC1(Cn2ncc(C(F)(F)F)c2C(=O)Nc2cccc(S(C)(=O)=O)c2)CCCCC1 [SC-232, 1-((1-methylcyclohexyl)methyl)-N-(3-(methylsulfonyl)phenyl)-4-(trifluoromethyl)-1H-pyrazole-5-carboxamide]	≥ 7.00
Cc1nn(CC2COC2)c(C(=O)Nc2cccc(S(C)(=O)=O)c2)c1C(F)(F)F [SC-234, 3-methyl-N-(3-(methyIsulfonyl)phenyl)-1-(oxetan-3-yImethyl)-4-(trifluoromethyl)-1H-pyrazole-5-carboxamide]	5.00 to 6.00
Cc1c(Cl)nn(CC2CCC(F)(F)CC2)c1C(=O)Nc1ccnc(C(N)=O)c1 [SC-239, 4-(3-chloro-1-((4,4-difluorocyclohexyl)methyl)-4-methyl-1H-pyrazole-5-carboxamido)picolinamide]	6.00 to 7.00
Cc1nn(CC2CCC(F)(F)CC2)c(C(=O)Nc2cncc(S(C)(=O)=O)c2)c1C(F)(F)F [SC-241, 1-((4,4-difluorocyclohexyl)methyl)-3-methyl-N-(5-(methyisulfonyl)pyridin-3-yl)-4-(trifluoromethyl)-1H-pyrazole-5-carboxamide]	6.00 to 7.00
Cc1c(C(F)(F)F)nn(CC2CCC(F)(F)CC2)c1C(=O)Nc1cncc(S(N)(=O)=O)c1 [SC-242, 1-((4,4-difluorocyclohexyl)methyl)-4-methyl-N-(5-sulfamoylpyridin-3-yl)-3-(trifluoromethyl)-1H-pyrazole-5-carboxamide]	6.00 to 7.00
Cc1c(C(F)(F)F)nn(CC2CCC(F)(F)CC2)c1C(=O)Nc1cccc(S(N)(=O)=O)n1 [SC-243, 1-((4,4-difluorocyclohexyl)methyl)-4-methyl-N-(6-sulfamoylpyridin-2-yl)-3-(trifluoromethyl)-1H-pyrazole-5-carboxamide]	6.00 to 7.00
Cc1nn(CC2CCCCC2)c(C(=O)Nc2cccc(S(N)(=O)=O)c2)c1C(F)(F)F [SC-244, 1-(cyclohexyimethyl)-3-methyl-N-(3-sulfamoylphenyl)-4-(trifluoromethyl)-1H-pyrazole-5-carboxamide]	≥ 7.00
NS(=O)(=O)c1cc(NC(=O)c2c(C(F)(F)F)c(C3CC3)nn2CC2CCC(F)(F)CC2)ccn1 [SC-246, 3-cyclopropyl-1-((4,4-difluorocyclohexyl)methyl)-N-(2-sulfamoylpyridin-4-yl)-4-(trifluoromethyl)-1H-pyrazole-5-carboxamide]	≥ 7.00
Cc1nn(C[C@@H]2CCC(F)(F)C2)c(C(=O)Nc2cncc(C(N)=O)c2)c1C(F)(F)F [SC-247R]	5.00 to 6.00
Cc1nn(C[C@H]2CCC(F)(F)C2)c(C(=O)Nc2cncc(C(N)=O)c2)c1C(F)(F)F [SC-247S]	6.00 to 7.00
Cc1nn(C[C@@H]2CCC(F)(F)C2)c(C(=O)Nc2ccnc(C(N)=O)n2)c1C(F)(F)F [SC-248R]	5.00 to 6.00
Cc1nn(C[C@H]2CCC(F)(F)C2)c(C(=O)Nc2ccnc(C(N)=O)n2)c1C(F)(F)F [SC-248S]	5.00 to 6.00
Cc1cnc(C(N)=O)cc1NC(=O)c1c(C(F)(F)F)c(C)nn1CC1CCC(F)(F)CC1 [SC-249, 4-(1-((4,4-difluorocyclohexyl)methyl)-3-methyl-4-(trifluoromethyl)-1H-pyrazole-5-carboxamido)-5-methyipicolinamide]	6.00 to 7.00
CS(=O)(=O)c1cc(NC(=O)c2c(C(F)(F)F)c(C3CC3)nn2CC2CCC(F)(F)CC2)ccn1 [SC-250, 3-cyclopropyl-1-((4,4-difluorocyclohexyl)methyl)-N-(2-(methylsulfonyl)pyridin-4-yl)-4-(trifluoromethyl)-1H-pyrazole-5-carboxamide]	≥ 7.00

— patent US11999699B2, “Substituted pyrazole amides” (GRUENENTHAL GMBH, priority 2021, dated 2024)
